From patent publication US7074824B2, “Pharmaceutical compositions containing beta-lapachone, or derivatives or analogs thereof, and methods of using same” (Arqule, Inc., priority 2001, dated 2006)
Where two headings read alike, the source gives them in different places.

Columns and labels:
MCF-7 = test: MTS growth inhibition assay; assay type: cell-based, human; details: Homo sapiens
Protocol: (§1) A2780 and A2780/CP (ovarian); MCF-7 (breast); HT-29 (colon); BxPC-3 (pancreas); and A549 (lung). The human tumor cell lines (purchased from ATCC, Rockville, Md.) were cultured at 37° C. […] Nova Tech, Grand Island, N.Y.) containing 10% fetal bovine serum (FBS, Nova Tech). Aliquots of cells were seeded into each well of 96-well microtiter plates at a final concentration of 10^4 cells/well and incubated for 24 h prior to exposure to test compounds. […] The MTS assay is a colorimetric assay based upon the ability of viable cells to convert MTS, a novel tetrazolium compound and electron-coupling reagent, to a colored formazan product that is soluble in cell culture medium. The cell concentration is then determined by measuring the absorbance of the formazan product at 490 nm. Growth inhibition, expressed as IC50, is calculated relative to vehicle-treated control cells.

A549 = test: MTS growth inhibition assay; assay type: cell-based, human; details: Homo sapiens
Protocol: as §1

HT-29 = test: MTS growth inhibition assay; assay type: cell-based, human; details: Homo sapiens
Protocol: as §1

BxPC-3 = test: MTS growth inhibition assay; assay type: cell-based, human; details: Homo sapiens
Protocol: as §1

A2780CP = test: MTS growth inhibition assay; assay type: cell-based, human; details: Homo sapiens, A2780C/P
Protocol: as §1

A2780 = test: MTS growth inhibition assay; assay type: cell-based, human; details: Homo sapiens
Protocol: as §1

[1] = tested on: Human ovarian cancer cells (36M2); test: Human ovarian cancer xenograft model, β-lapachone in Lipiodol and Taxol®; assay type: in vivo, athymic female nude mice; details: i.p., 10 cycles
Protocol: Human ovarian cancer cells (36M2, originally isolated from malignant ascites) were inoculated by i.p. injection into athymic female nude mice 24 h after irradiation. In this model, metastatic foci form approximately 1 week after inoculation, and tumor nodules of the peritoneum and malignant ascites develop in 4–5 weeks. Ten days after tumor inoculation (10×10^6 cells), treatment regimens were initiated. The control group was treated with vehicle alone. In each typical treatment cycle, the β-lapachone alone group was treated with 25–50 mg/kg i.p. of β-lapachone in Lipiodol solution and the Taxol® alone group was treated at 1 mg/kg i.p. (Taxol® formulation diluted in Lipiodol), both followed 24 h later by i.p. injection of vehicle. In the combination group, nude mice were treated with β-lapachone at 25–50 mg/kg, followed 24 h later by Taxol® at 1 mg/kg. All groups were treated for 10 cycles, with a 1-day break between each cycle. […] Host toxicity was evaluated by general appearance and body weight.

[2] = tested on: six human cancer cells lines; test: MTS growth inhibition assay, summary over all lines; assay type: cell-based; details: all six tumor cell lines; tested up to 20 μM
Protocol: A2780 and A2780/CP (ovarian); MCF-7 (breast); HT-29 (colon); BxPC-3 (pancreas); and A549 (lung). The human tumor cell lines (purchased from ATCC, Rockville, Md.) were cultured at 37° C. (5% CO2) in RPMI medium (RPMI; Nova Tech, Grand Island, N.Y.) containing 10% fetal bovine serum (FBS, Nova Tech). Aliquots of cells were seeded into each well of 96-well microtiter plates at a final concentration of 10^4 cells/well and incubated for 24 h prior to exposure to test compounds. […] The MTS assay is a colorimetric assay based upon the ability of viable cells to convert MTS, a novel tetrazolium compound and electron-coupling reagent, to a colored formazan product that is soluble in cell culture medium. The cell concentration is then determined by measuring the absorbance of the formazan product at 490 nm. Growth inhibition, expressed as IC50, is calculated relative to vehicle-treated control cells.

human cancer cell lines = details: single agent, typical range; read-out: antineoplastic activity (IC50); cited from earlier work

**Q.** Which results are given for `CC1(C)CCC2=C(O1)c1ccccc1C(=O)C2=O` [β-lapachone]?
**A.** IC50 (MCF-7; MCF7, read-out: Growth inhibitory activity (50% effective concentration, IC50), MCF-7 breast, Exp 1): 2.37 µM; IC50 (MCF-7; MCF7, read-out: Growth inhibitory activity (50% effective concentration, IC50), MCF-7 breast, Exp 2): 4.75 µM; IC50 (MCF-7; MCF7, read-out: Growth inhibitory activity (50% effective concentration, IC50), MCF-7 breast, Exp 3): 2.1 µM; IC50 (MCF-7; MCF7, read-out: Growth inhibitory activity (50% effective concentration, IC50), MCF-7 breast, Mean ± SE of 3 experiments): 3.07 ± 0.84 µM; IC50 (A549; A549, read-out: Growth inhibitory activity (50% effective concentration, IC50), A549 lung, Exp 1): 4.48 µM; IC50 (A549; A549, read-out: Growth inhibitory activity (50% effective concentration, IC50), A549 lung, Exp 2): 4.73 µM; IC50 (A549; A549, read-out: Growth inhibitory activity (50% effective concentration, IC50), A549 lung, Exp 3): 18.7 µM; IC50 (A549; A549, read-out: Growth inhibitory activity (50% effective concentration, IC50), A549 lung, Mean ± SE of 3 experiments): 9.3 ± 4.69 µM; IC50 (HT-29; HT-29, read-out: Growth inhibitory activity (50% effective concentration, IC50), HT-29 colon, Exp 1): 5.37 µM; IC50 (HT-29; HT-29, read-out: Growth inhibitory activity (50% effective concentration, IC50), HT-29 colon, Exp 2): 11.4 µM; IC50 (HT-29; HT-29, read-out: Growth inhibitory activity (50% effective concentration, IC50), HT-29 colon, Exp 3): 9.89 µM; IC50 (HT-29; HT-29, read-out: Growth inhibitory activity (50% effective concentration, IC50), HT-29 colon, Mean ± SE of 3 experiments): 8.89 ± 1.82 µM; IC50 (BxPC-3; BXPC-3, read-out: Growth inhibitory activity (50% effective concentration, IC50), BxPC-3 pancreas, Exp 1): 11.6 µM; IC50 (BxPC-3; BXPC-3, read-out: Growth inhibitory activity (50% effective concentration, IC50), BxPC-3 pancreas, Exp 2): 5.68 µM; IC50 (BxPC-3; BXPC-3, read-out: Growth inhibitory activity (50% effective concentration, IC50), BxPC-3 pancreas, Exp 3): 16.5 µM; IC50 (BxPC-3; BXPC-3, read-out: Growth inhibitory activity (50% effective concentration, IC50), BxPC-3 pancreas, Mean ± SE of 3 experiments): 11.3 ± 3.12 µM; IC50 (A2780CP; read-out: Growth inhibitory activity (50% effective concentration, IC50), A2780CP (resistant) ovarian, Exp 1): 4.47 µM; IC50 (A2780CP; read-out: Growth inhibitory activity (50% effective concentration, IC50), A2780CP (resistant) ovarian, Exp 2): 1.61 µM; IC50 (A2780CP; read-out: Growth inhibitory activity (50% effective concentration, IC50), A2780CP (resistant) ovarian, Exp 3): 1.76 µM; IC50 (A2780CP; read-out: Growth inhibitory activity (50% effective concentration, IC50), A2780CP (resistant) ovarian, Mean ± SE of 3 experiments): 2.61 ± 0.93 µM; IC50 (A2780; A2780, read-out: Growth inhibitory activity (50% effective concentration, IC50), A2780 (sensitive) ovarian, Exp 1, 4 h treatment + 24 h drug-free): 2.11 µM; IC50 (A2780; A2780, read-out: Growth inhibitory activity (50% effective concentration, IC50), A2780 (sensitive) ovarian, Exp 2, 4 h treatment + 24 h drug-free): 3.99 µM; IC50 (A2780; A2780, read-out: Growth inhibitory activity (50% effective concentration, IC50), A2780 (sensitive) ovarian, Exp 3, 4 h treatment + 24 h drug-free): 0.876 µM; IC50 (A2780; A2780, read-out: Growth inhibitory activity (50% effective concentration, IC50), A2780 (sensitive) ovarian, Mean ± SE of 3 experiments): 2.32 ± 0.91 µM; decrease in tumor number versus control ([1]; assessed day 50, β-lapachone 25–50 mg/kg in Lipiodol, Taxol® 1 mg/kg): ~75%; size of the tumor nodules and amount of ascites ([1]; laparotomy at day 50): considerable reduction in the size of the tumor nodules and the amount of ascites; growth inhibitory activity, verbal summary [2]: dose-dependent inhibitory effect; IC50 (human cancer cell lines): 1 to 10 µM
